“Also recorded” adds a separate entry of the source.
Columns and labels:
WT and KO mice = experiment: 15-day oral toxicological study in WT and hepatic Cpr KO mice (organ weights, H&E, TUNEL, serum chemistry); type: in vivo, mouse
Source text: Animal use protocols were approved by the Institutional Animal Care and Use Committee of the Shanghai Institute of Materia Medica (Shanghai, China), IACUC No. 2016-10-RJ-136. The Cpr knockout (KO) mice were a gift from Professor Xinxin Ding (Wadsworth Center, Albany, NY, USA). Procedures for animal breeding and genotyping were reported previously (Wu et al., [2005]). Eight to twelve weeks old male KO mice and their WT littermates on a mixed C57BL/6 and 129/Sv genetic background were used in this study. All animals were provided with a certified standard diet and tap water ad libitum during experiments. All animals were maintained under controlled temperature with a 12 h:12 h light/dark cycle. All efforts were made to minimize animal discomfort and illness, and mice were anesthetized with pentobarbital sodium (150 mg/kg, i.p.) before sample collection. No animals died during the experiment.
(§1) For toxicity experiments, mice (n = 3/group) were treated with LLDT-8 (0.5 or 1.0 mg/kg) consecutively administered by gavage for 15 days. Controls received saline. Mice were killed on the 15th-day post-administration and blood, liver, kidney, spleen, testes, and epididymis were collected. About 500 μL blood samples were collected from the heart. The main lobe of the liver, kidney, spleen, and epididymis was fixed in 10% neutral buffered formalin for histological examination, and the left testicle was fixed in modified Davidson's buffer (30% of a 37–40% solution of formaldehyde, 15% ethanol, 5% glacial acetic acid, and 50% distilled H2O) for 16 h followed by 10% neutral buffered formalin for 24 h (Latendresse et al., [2002]). Tissue sections were stained with hematoxylin and eosin (H&E). Remaining tissues were stored at −80°C for RNA and protein extraction.
Sera were assayed for Urea, creatine (CRE), alanine aminotransferase (ALT), and aspartate transaminase (AST) using an automatic HITACHI Clinical Analyzer Model 7080 (Hitachi High-Technologies Corporation, Tokyo, Japan). The intercoefficients of variability in this assay were1.1% (ALT), 0.9% (AST), 1.2% (Urea) and 1.4% (CRE). The intracoefficients of variability in this assay were 2.0% (ALT), 0.9% (AST), 1.2% (Urea) and 5.1% (CRE).
TUNEL assays were performed according to the manufacturer's protocol (In Situ Cell Death Kit, Roche Diagnostics, Indianapolis, IN). In brief, the paraffin-embedded testis tissue samples were deparaffinized three times in exchanges wash of xylene. The testis sections were then gradually rehydrated using decreasing ethanol concentrations (100, 95, 90, 80, and 70%) followed by PBS (pH = 7.4). After digestion with proteinase K (15 μg/mL, Cat. No. 539480, Lot. No. D00148754, Millipore, USA), paraffin-embedded tissue sections were labeled with a TUNEL reaction mixture, which contained terminal deoxynucleotidyl transferase incorporated with fluorescein. And 1 μg/mL DAPI (Sigma, USA) to used to reveal nuclear DNA. After staining, images were obtained with a fluorescent microscope (NIKON TS2, Japan).

RNA polymerase II = RNA polymerase II protein level in testes and liver (western blot); type: in vivo, mouse; details: 0.5–1 mg/kg, 15 days
Method: as §1
(§2) Cells were washed twice with ice-cold PBS (137 mM NaCl, 2.7 mM KCl, 10 mM Na2HPO4, and 1.8 mM KH2PO4, pH 7.4) and lysed in SDS sample buffer. Cell lysates, containing 20 μg of protein, were separated with SDS-PAGE (8%) and transferred to polyvinylidene difluoride membranes. After blocking in 5% non-fat milk in tris-buffered saline containing 0.1% Tween-20 (pH = 7.6), membranes were incubated with the appropriate primary antibodies at 4°C overnight. The primary antibodies γ-H2AX (Cat. No: 2577, Lot. No: 11, CST, USA) and Pol II (Cat. No: 05-623, Lot. No: 2397109, Millipore, USA) diluted 1:1000 in 5% bovine serum albumin (BSA, Cat. No. B2064-50G, Sigma, USA). Then the membranes were exposed to secondary antibodies (1:10,000, Cat. No.111-035-003, 115-035-003, Jackson ImmunoResearch Laboratories, USA) in 5% non-fat milk for 1 h at room temperature. Immunoreactive proteins were visualized using an enhanced chemiluminescent system (Cat. No. WBKLS0500, Millipore, Shanghai, China).

GC-2spd cells = experiment: Pol II protein level in spermatocyte-like cells (western blot); type: cell-based, mouse
Method: Mouse GC-1spg (spermatogonia-like, ATCC number: CRL-2053), TM4 (Sertoli cell-like, ATCC number: CRL-1715), and GC-2spd (spermatocyte-like, ATCC number: CRL-2196) were purchased from ATCC (Manassas, VA). Cells were grown in a 5% CO2 atmosphere at 37°C. TM4 was cultured in DMEM supplemented with 5% horse serum, 2.5% fetal bovine serum and 1x antibiotic-antimyotic (Cat. NO. 15240062, Life technologies). GC-1spg and GC-2spd were cultured in DMEM supplemented with 10% fetal bovine serum (Cat. No. F2442, Sigma, USA) and 1x antibiotic-antimyotic (Cat.NO. 15240062, Life technologies).
as §2, with “Then the membranes were exposed to secondary antibodies (1:10,000, Cat. No.111-035-003, 115-035-003, Jackson ImmunoResearch Laboratories, USA) in 5% non-fat milk for 1 h at room temperature. Immunoreactive proteins were visualized using an enhanced chemiluminescent system (Cat. No. WBKLS0500, Millipore, Shanghai, China).” left out

mice testes = experiment: Testicular toxicity comparison between triptolide and LLDT-8 (15 days by gavage, H&E); type: in vivo, mouse; details: 0.5 mg/kg by gavage for 15 days
Method: For toxicity experiments, mice (n = 3 for each group) were treated with tritpilide (0.125, 0.25, 0.5mg/kg), LLDT-8 (0.125, 0.25, 0.5mg/kg) consecutively administered by gavage for 15 days. The control group received saline. Mice were sacrificed on the 15th day post-administration and blood, liver, kidney, spleen, testis and epididymis were collected. The main lobe of liver, kidney, spleen and epididymis were fixed in 10% neutral buffered formalin for histological examination, the left testicle was fixed in Davidson’s buffer for 16 hours followed by 10% neutral buffered formalin. Tissue sections were stained with hematoxylin and eosin (H&E). Remaining tissues were stored at -80 °C for RNA and protein extraction.
Supplementary Figure S1 Comparison of testicular toxicity between triptolide(TL) and LLDT-8. Mice (n=3) were weighted before sacrificed on the 15th day post-administration of triptolide, LLDT-8 or saline. The testes were collected and weighted. […] (G-H) Comparison of epididymis weight between triptolide and LLDT-8. Significant difference was determined by one-way Anova, mean ± SD. * p<0.05, *** p<0.001 vs Saline group. # p<0.05, ## p<0.01, ### p<0.001 vs T8 group at the same dosage.

mice = test system: mice; set-up: method as in Zhou et al., 2005; details: p.o., ref Zhou et al., 2005; cited from earlier work
[1] = after LLDT-8 treatment, 15 days

SMILES: CC(C)[C@]12O[C@H]1[C@@H]1O[C@]13[C@]1(O[C@H]1C[C@@]1(O)C4=C(CC[C@]31C)C(=O)OC4)[C@@H]2O [LLDT-8, (5R)-5-hydroxytriptolide]
- epididymis weight (WT and KO mice; 0.5–1 mg/kg by gavage 15 days): not changed
- testes weight (WT and KO mice; 0.5–1 mg/kg by gavage 15 days): dose-dependently reduced
- testis histology (H&E) in KO mice compared to WT mice (WT and KO mice; 0.5–1 mg/kg by gavage 15 days): reduced germinal cell layers; also recorded: severe vacuolar degeneration; also recorded: absence of spermatids development
- body weight (WT and KO mice; 0.5–1 mg/kg by gavage 15 days, WT and KO mice): did not alter
- hematology and spleen in KO mice (WT and KO mice; 15 days by gavage): induced hematological change and enlarged spleen
- liver injury and kidney damage (WT and KO mice; 15 days by gavage, WT and KO mice): did not cause liver injury and kidney damage
- TUNEL-positive foci in testes of WT mice vs WT mice with saline (WT and KO mice; [1]): apparently increased
- number of TUNEL positive foci in testis, KO mice vs WT mice (WT and KO mice; [1]): much higher
- Pol II protein in the testes of KO mice (RNA polymerase II): decreased
- Pol II protein level in the livers of KO mice (RNA polymerase II): did not change
- expression of Pol II in the testes and liver of WT mice (RNA polymerase II): did not change significantly
- Pol II protein (GC-2spd cells): dose- and time-dependently reduced
- testis morphology (H&E) (mice testes): did not obviously alter the normal morphology of testes
- LD50 (mice): 9.3 mg/kg
